Patent US10021881B2, “Vaporized administration of pesticides” (priority 2016, dated 2018)

Assays:
Penicillium expansum [1] = experiment: In vivo assay of vaporized pyrimethanil to inhibit Penicillium expansum in apples
Experimental: An in vivo assay was used to evaluate the ability of vaporized pyrimethanil to control pathogenic infection of apples by Penicillium expansum. […] Each wound was then inoculated with 30 μL of 1×10^6 spores/mL suspension of P. expansum.
Fruits were evaluated in order to observe disease incidence (i.e., browning) and fungal sporulation diameter (both measured in millimeters, mm).

Botrytis cinerea [2] = experiment: In vivo assay of vaporized pyrimethanil to inhibit Botrytis cinerea in grapes; conditions: for Gray Mold Severity (0-4): scale 0 no disease to 4 exceptionally high
Excerpt: An in vivo assay was used to evaluate the ability of vaporized pyrimethanil to control pathogenic infection of Table grapes by Botrytis cinerea.

Penicillium expansum [3] = experiment: Drenching vs. vaporizing treatments of apples, browning; assay type: in vivo; conditions: for Percent (%) Inhibition of Internal Browning: apples stored nine weeks at 1° C.
Experimental: An in vivo assay was used to evaluate the ability of vaporized pyrimethanil to control pathogenic infection of apples by Penicillium expansum as compared to drenching methods of apple treatment. Vaporized treatments of apples were performed as previous described in Examples 1-6, with the exception of using a 1 m wide×1 m high×8 m deep tunnel (see FIG. 11). […] In addition, drenching treatments comprising a final concentration of 125 mg/L, 500 mg/L, and 2000 mg/L of pyrimethanil active ingredient were also prepared. Fruits were stored for nine weeks at 1° C., and evaluated in order to observe and/or determine the area of browning on the fruit (see FIG. 22) and the percent of browning inhibition (see Table 7).

[4] = Particle size estimate from settling of fogged or vaporized pyrimethanil on Petri plates (HPLC); assay type: physicochemical; conditions: for estimated pyrimethanil particle size: vaporized
[5] = assay type: physicochemical
Experimental: This example relates to experiments performed to determine if degradation of pyrimethanil technical compounds observed at high temperatures was due to evaporation. In the present example, seven milligrams (7 mg) of pyrimethanil compounds 1 and 2 were analyzed in air by Thermo Gravity Analysis-Mass Spectrometry (TGA-MS). The pyrimethanil samples were loaded onto a TGA platinum pan of the Q5000 TGA instrument (TA instruments) and using standard TGA test methods as follows: select gas 2 (air), data storage on, ramp at 5° C. per minute to 100° C., isothermal for 180 mins, data storage off, equilibrate at 60° C., and end method. An isothermal method was also performed according to standard methods.
The TGA furnace was closed and purged with helium, then heated from room temperature to about 300° C. at 10° C. per minute. […] An isothermal method was also performed according to standard methods.

[6] = Agriphar Pyrimethanil (ISO) Safety Data Sheet; cited from earlier work
Botrytis cinerea [7] = experiment: In vivo assay of vaporized pyrimethanil to inhibit Botrytis cinerea in strawberries; conditions: for Gray Mold Severity (0-4): scale 0 no disease to 4 exceptionally high
Experimental: Eight strawberries (per repetition, in triplicate) were placed in an industry standard clamshell with the stem facing down. […] Clamshells were then placed at the bottom of a 36-L acrylic desiccator chamber in triplicate.
An appropriate amount of pyrimethanil to achieve a final headspace concentration of 1 mg/L, 0.3 mg/L, 0.1 mg/L, or 0.03 mg/L was dissolved in acetone and 100 μL of the solution was pipetted into a small glass tube. This tube was then placed inside a preheated vaporization device (0.5″ OD by 6″ long thermostatically heated copper tube mounted to a 0.5 L/min low flow fan) set at 60° C. for 1 minute to allow the acetone to evaporate, leaving behind the solid crystals of pyrimethanil.
Pyrimethanil was then introduced into the cabinets of the chamber through the bulkhead port by using the vaporization device as described in Example 1 set at 180° C. The chambers were then incubated at 21° C. for three (3) days. After incubation, fruits were evaluated daily for an additional 3 days at 21° C. Fruits were evaluated in order to observe percentage of disease incidence (%) and severity of disease. Disease severity was rated on a scale ranging from 0 to 4, where “0” indicated no disease severity, “1” indicated minimal disease severity, “2” indicated medium disease severity, “3” indicated high disease severity, and “4” indicated exceptionally high disease severity.

[8] = 0.04 mg/L, Day 0 (after 3 days at 21° C.)
[9] = 0.04 mg/L, Day 1 (after 3 days at 21° C.)
[10] = 0.04 mg/L, Day 2 (after 3 days at 21° C.)
[11] = 0.04 mg/L, Day 3 (after 3 days at 21° C.)
[12] = 0.2 mg/L, Day 0 (after 3 days at 21° C.)
[13] = 0.2 mg/L, Day 1 (after 3 days at 21° C.)
[14] = 0.2 mg/L, Day 2 (after 3 days at 21° C.)
[15] = 0.2 mg/L, Day 3 (after 3 days at 21° C.)
[16] = 1 mg/L, Day 0 (after 3 days at 21° C.)
[17] = 1 mg/L, Day 1 (after 3 days at 21° C.)
[18] = 1 mg/L, Day 2 (after 3 days at 21° C.)
[19] = 1 mg/L, Day 3 (after 3 days at 21° C.)
[20] = 0.01 mg/L, Day 0 (after 3 days at 21° C.)
[21] = 0.01 mg/L, Day 1 (after 3 days at 21° C.)
[22] = 0.01 mg/L, Day 2 (after 3 days at 21° C.)
[23] = 0.01 mg/L, Day 3 (after 3 days at 21° C.)
[24] = 0.03 mg/L, Day 0 (after 3 days at 21° C.)
[25] = 0.03 mg/L, Day 1 (after 3 days at 21° C.)
[26] = 0.03 mg/L, Day 2 (after 3 days at 21° C.)
[27] = 0.03 mg/L, Day 3 (after 3 days at 21° C.)
[28] = 0.1 mg/L, Day 0 (after 3 days at 21° C.)
[29] = 0.1 mg/L, Day 1 (after 3 days at 21° C.)
[30] = 0.1 mg/L, Day 2 (after 3 days at 21° C.)
[31] = 0.1 mg/L, Day 3 (after 3 days at 21° C.)
[32] = 0.3 mg/L, Day 0 (after 3 days at 21° C.)
[33] = 0.3 mg/L, Day 1 (after 3 days at 21° C.)
[34] = 0.3 mg/L, Day 2 (after 3 days at 21° C.)
[35] = 0.3 mg/L, Day 3 (after 3 days at 21° C.)

Cc1cc(C)nc(Nc2ccccc2)n1 [pyrimethanil, 4,6-Dimethyl-N-phenylpyrimidin-2-amine]
Browning (mm) (Penicillium expansum [1]; [8]): 10.6 mm
Fungal Sporulation (mm) (Penicillium expansum [1]; [8]): 2.6 mm
Browning (mm) (Penicillium expansum [1]; [9]): 16.2 mm
Fungal Sporulation (mm) (Penicillium expansum [1]; [9]): 2.1 mm
Browning (mm) (Penicillium expansum [1]; [10]): 23.1 mm
Fungal Sporulation (mm) (Penicillium expansum [1]; [10]): 2.8 mm
Browning (mm) (Penicillium expansum [1]; [11]): 28.8 mm
Fungal Sporulation (mm) (Penicillium expansum [1]; [11]): 3.1 mm
Browning (mm) (Penicillium expansum [1]; [12]): 5.3 mm
Fungal Sporulation (mm) (Penicillium expansum [1]; [12]): 0.3 mm
Browning (mm) (Penicillium expansum [1]; [13]): 8.1 mm
Fungal Sporulation (mm) (Penicillium expansum [1]; [13]): 0.8 mm
Browning (mm) (Penicillium expansum [1]; [14]): 12.7 mm
Fungal Sporulation (mm) (Penicillium expansum [1]; [14]): 1.4 mm
Browning (mm) (Penicillium expansum [1]; [15]): 16.2 mm
Fungal Sporulation (mm) (Penicillium expansum [1]; [15]): 2.6 mm
Browning (mm) (Penicillium expansum [1]; [16]): 3.4 mm
Fungal Sporulation (mm) (Penicillium expansum [1]; [16]): 0.1 mm
Browning (mm) (Penicillium expansum [1]; [17]): 5.6 mm
Fungal Sporulation (mm) (Penicillium expansum [1]; [17]): 0.7 mm
Browning (mm) (Penicillium expansum [1]; [18]): 8.8 mm
Fungal Sporulation (mm) (Penicillium expansum [1]; [18]): 0.8 mm
Browning (mm) (Penicillium expansum [1]; [19]): 11.4 mm
Fungal Sporulation (mm) (Penicillium expansum [1]; [19]): 1.6 mm
Gray Mold Incidence (%) (Botrytis cinerea [2]; [20]): 100.0%
Gray Mold Severity (0-4) (Botrytis cinerea [2]; [20]): 1.6
Gray Mold Incidence (%) (Botrytis cinerea [2]; [21]): 100.0%
Gray Mold Severity (0-4) (Botrytis cinerea [2]; [21]): 2.0
Gray Mold Incidence (%) (Botrytis cinerea [2]; [22]): 100.0%
Gray Mold Severity (0-4) (Botrytis cinerea [2]; [22]): 2.0
Gray Mold Incidence (%) (Botrytis cinerea [2]; [23]): 100.0%
Gray Mold Severity (0-4) (Botrytis cinerea [2]; [23]): 3.6
Gray Mold Incidence (%) (Botrytis cinerea [2]; [24]): 100.0%
Gray Mold Severity (0-4) (Botrytis cinerea [2]; [24]): 1.4
Gray Mold Incidence (%) (Botrytis cinerea [2]; [25]): 100.0%
Gray Mold Severity (0-4) (Botrytis cinerea [2]; [25]): 2.0
Gray Mold Incidence (%) (Botrytis cinerea [2]; [26]): 100.0%
Gray Mold Severity (0-4) (Botrytis cinerea [2]; [26]): 2.0
Gray Mold Incidence (%) (Botrytis cinerea [2]; [27]): 100.0%
Gray Mold Severity (0-4) (Botrytis cinerea [2]; [27]): 3.4
Gray Mold Incidence (%) (Botrytis cinerea [2]; [28]): 94.4%
Gray Mold Severity (0-4) (Botrytis cinerea [2]; [28]): 0.5
Gray Mold Incidence (%) (Botrytis cinerea [2]; [29]): 98.1%
Gray Mold Severity (0-4) (Botrytis cinerea [2]; [29]): 0.7
Gray Mold Incidence (%) (Botrytis cinerea [2]; [30]): 98.1%
Gray Mold Severity (0-4) (Botrytis cinerea [2]; [30]): 1.1
Gray Mold Incidence (%) (Botrytis cinerea [2]; [31]): 98.1%
Gray Mold Severity (0-4) (Botrytis cinerea [2]; [31]): 1.8
Gray Mold Incidence (%) (Botrytis cinerea [2]; [32]): 16.7%
Gray Mold Severity (0-4) (Botrytis cinerea [2]; [32]): 0.1
Gray Mold Incidence (%) (Botrytis cinerea [2]; [33]): 94.4%
Gray Mold Severity (0-4) (Botrytis cinerea [2]; [33]): 0.5
Gray Mold Incidence (%) (Botrytis cinerea [2]; [34]): 94.4%
Gray Mold Severity (0-4) (Botrytis cinerea [2]; [34]): 0.8
Gray Mold Incidence (%) (Botrytis cinerea [2]; [35]): 100.0%
Gray Mold Severity (0-4) (Botrytis cinerea [2]; [35]): 1.3
Percent (%) Inhibition of Internal Browning (Penicillium expansum [3]; DRENCH, Treatment Rate 500 mg/L): 47%
Percent (%) Inhibition of Internal Browning (Penicillium expansum [3]; DRENCH, Treatment Rate 2,000 mg/L): 69%
Percent (%) Inhibition of Internal Browning (Penicillium expansum [3]; VAPOR, Treatment Rate 0.5 mg/L): 96%
Percent (%) Inhibition of Internal Browning (Penicillium expansum [3]; VAPOR, Treatment Rate 2 mg/L): 100%
area of browning, vaporized compared with drenched (Penicillium expansum [3]; apples treated in a preventative manner, nine weeks at 1° C., FIG. 22): less area (mm) of browning
percent of total pyrimethanil settled on the plates ([4]; FOG (MeOH + PYR), Settling Time 7.5 Minutes, Particle Size 5.9 (μm)): 61%
percent of total pyrimethanil settled on the plates ([4]; FOG (MeOH + PYR), Settling Time 15 Minutes, Particle Size 4.1 (μm)): 77%
percent of total pyrimethanil settled on the plates ([4]; FOG (MeOH + PYR), Settling Time 30 Minutes, Particle Size 2.8 (μm)): 100%
percent of total pyrimethanil settled on the plates ([4]; FOG (MeOH + PYR), Settling Time 60 Minutes, Particle Size 1.9 (μm)): 100%
percent of total pyrimethanil settled on the plates ([4]; FOG (MeOH + PYR), Settling Time 360 Minutes, Particle Size 0.75 (μm)): 100%
percent of total pyrimethanil settled on the plates ([4]; VAPOR (100% Technical PYR), Settling Time 60 Minutes, Particle Size 1.9 (μm)): 26%
percent of total pyrimethanil settled on the plates ([4]; VAPOR (100% Technical PYR), Settling Time 360 Minutes, Particle Size 0.75 (μm)): 91%
particle size ([4]; fog particles, 100% settled after 30 minutes): approximately 2.8 micron
estimated pyrimethanil particle size ([4]; 26% settled after 60 minutes): 1.9 micron
estimated pyrimethanil particle size ([4]; 91% settled after 360 minutes): 0.75 micron
thermal degradation [5]: no thermal degradation
known thermal decomposition range [6]: 189.54-344.74 °C
Gray Mold Incidence (%) (Botrytis cinerea [7]; [24]): 79.2%
Gray Mold Severity (0-4) (Botrytis cinerea [7]; [24]): 0.8
Gray Mold Incidence (%) (Botrytis cinerea [7]; [25]): 87.5%
Gray Mold Severity (0-4) (Botrytis cinerea [7]; [25]): 1.3
Gray Mold Incidence (%) (Botrytis cinerea [7]; [26]): 91.7%
Gray Mold Severity (0-4) (Botrytis cinerea [7]; [26]): 1.7
Gray Mold Incidence (%) (Botrytis cinerea [7]; [27]): 100.0%
Gray Mold Severity (0-4) (Botrytis cinerea [7]; [27]): 2.1
Gray Mold Incidence (%) (Botrytis cinerea [7]; [28]): 70.8%
Gray Mold Severity (0-4) (Botrytis cinerea [7]; [28]): 0.6
Gray Mold Incidence (%) (Botrytis cinerea [7]; [29]): 79.2%
Gray Mold Severity (0-4) (Botrytis cinerea [7]; [29]): 0.8
Gray Mold Incidence (%) (Botrytis cinerea [7]; [30]): 83.3%
Gray Mold Severity (0-4) (Botrytis cinerea [7]; [30]): 1.2
Gray Mold Incidence (%) (Botrytis cinerea [7]; [31]): 100.0%
Gray Mold Severity (0-4) (Botrytis cinerea [7]; [31]): 1.7
Gray Mold Incidence (%) (Botrytis cinerea [7]; [32]): 66.7%
Gray Mold Severity (0-4) (Botrytis cinerea [7]; [32]): 0.4
Gray Mold Incidence (%) (Botrytis cinerea [7]; [33]): 75.0%
Gray Mold Severity (0-4) (Botrytis cinerea [7]; [33]): 0.5
Gray Mold Incidence (%) (Botrytis cinerea [7]; [34]): 73.8%
Gray Mold Severity (0-4) (Botrytis cinerea [7]; [34]): 0.8
Gray Mold Incidence (%) (Botrytis cinerea [7]; [35]): 95.8%
Gray Mold Severity (0-4) (Botrytis cinerea [7]; [35]): 1.1
Gray Mold Incidence (%) (Botrytis cinerea [7]; [16]): 66.7%
Gray Mold Severity (0-4) (Botrytis cinerea [7]; [16]): 0.3
Gray Mold Incidence (%) (Botrytis cinerea [7]; [17]): 70.8%
Gray Mold Severity (0-4) (Botrytis cinerea [7]; [17]): 0.4
Gray Mold Incidence (%) (Botrytis cinerea [7]; [18]): 69.6%
Gray Mold Severity (0-4) (Botrytis cinerea [7]; [18]): 0.6
Gray Mold Incidence (%) (Botrytis cinerea [7]; [19]): 91.7%
Gray Mold Severity (0-4) (Botrytis cinerea [7]; [19]): 1.0
